Where a SMILES comes first, the peptide text is derived from it. Bridges are numbered along the chain shown (N, C = ends). [ ]: non-standard residue; d: D form. The star is where a group is joined. hPhe(3,5-F2-4-CF3) = N[C@@H](CCc1cc(F)c(C(F)(F)F)c(F)c1)C(=O)O; hPhe(3-Cl-4-CF3) = N[C@@H](CCc1ccc(C(F)(F)F)c(Cl)c1)C(=O)O; NPrPhe(4-CF3) = CCCN[C@@H](Cc1ccc(C(F)(F)F)cc1)C(=O)O; Pro(4-spirocPr) = O=C(O)[C@@H]1CC2(CC2)CN1; NMeGly(cPent) = CN[C@H](C(=O)O)C1CCCC1; NMeD = CN[C@@H](CC(=O)O)C(=O)O; Ac4c(3-oxa) = NC1(C(=O)O)COC1; NMeL = CN[C@@H](CC(C)C)C(=O)O; Morpholide = C1CN(*)CCO1; NMeA = CN[C@@H](C)C(=O)O; Ac5c = NC1(C(=O)O)CCCC1; Aze = O=C(O)[C@@H]1CCN1; Aib = CC(C)(N)C(=O)O; Sar = CNCC(=O)O
Key:
HRAS wild-type protein = HRAS wild-type protein (Homo sapiens, UniProt P01112); test: Binding to HRAS by surface plasmon resonance (SPR), KD and KD ratio to KRAS
Chain of HRAS wild-type protein (P01112 whole entry): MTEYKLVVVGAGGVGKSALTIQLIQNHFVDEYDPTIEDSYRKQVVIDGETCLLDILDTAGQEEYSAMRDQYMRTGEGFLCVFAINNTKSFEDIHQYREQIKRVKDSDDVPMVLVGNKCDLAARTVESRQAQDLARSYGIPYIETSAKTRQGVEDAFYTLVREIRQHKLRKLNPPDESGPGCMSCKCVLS
Method in brief: (§1)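 Each cycle, GDP-bound biotin-Avi RAS was captured (~100–300 RU), compound concentrations were injected low to high for 75 s each at 100 µL/min, then the chip was regenerated. Buffer: HBS pH 7.4, 10 mM MgCl2, 10 µM GDP, 1 mM DTT, 4% DMSO; 30°C. KD from a 1:1 binding model.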

[1] = tested on: human lung cancer strain NCI-H441; format: cell-based
Method in brief: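 Signal came from […] measured per well once the reagent was added. Beforehand, cells were cultured at 37°C and 5% carbon dioxide on a compound series serially diluted in dimethyl sulfoxide.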

[2] = target: GDP-bound NRAS wild-type protein (Homo sapiens, UniProt P01111); test: Binding to NRAS by surface plasmon resonance (SPR), KD and KD ratio to KRAS
Chain of GDP-bound NRAS wild-type protein (P01111 whole entry): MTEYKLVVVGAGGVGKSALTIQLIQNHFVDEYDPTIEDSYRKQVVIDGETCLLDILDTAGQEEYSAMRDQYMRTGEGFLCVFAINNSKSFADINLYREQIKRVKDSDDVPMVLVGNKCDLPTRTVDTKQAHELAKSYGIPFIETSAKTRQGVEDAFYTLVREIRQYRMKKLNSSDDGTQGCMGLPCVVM
Method in brief: as §1

[3] = ratio of the KD value with respect to HRAS wild-type protein to the KD value with respect to KRAS
[4] = ratio of the KD value with respect to GDP-bound NRAS wild-type protein to the KD value with respect to KRAS
[5] = ratio of KD value for HRAS wild-type protein to KD value for KRAS (SPR)
[6] = ratio of KD value for GDP-bound NRAS wild-type protein to KD value for KRAS (SPR)
[7] = ratio of KD for HRAS wild-type protein to KD for KRAS
[8] = ratio of KD for GDP-bound NRAS wild-type protein to KD for KRAS

SMILES | IC50 [1] | HRAS /KRAS (HRAS wild-type protein; [3]) | NRAS /KRAS [2, 4] | HRAS /KRAS (HRAS wild-type protein; [7]) | NRAS /KRAS [2, 8] | further results
CCC[C@H]1C(=O)N[C@@H]([C@@H](C)CC)C(=O)N(C2CC2)CC(=O)N(C)[C@H]2C/C=C\CCN(C2=O)[C@@H](Cc2ccc(C(F)(F)F)cc2)C(=O)N(C)CC(=O)N[C@@H](CCc2ccc(C(F)(F)F)c(OC)c2)C(=O)N2C[C@H](OCC)C[C@H]2C(=O)N(C)C2(CCC2)C(=O)N(C)[C@@H](C2CCCC2)C(=O)N(C)[C@H](C(=O)N(C)C)CC(=O)N1C [PP2316] | 1.6 nM | A (a compound having 10 or more and less than 20 is denoted as A) | A (a compound having 10 or more and less than 20 is denoted as A) | – | – | –
C#CC[C@H]1C(=O)N[C@@H]([C@@H](C)CC)C(=O)N(C)CC(=O)N(C)[C@H]2C/C=C\CCN(C2=O)[C@@H](Cc2ccc(C(F)(F)F)cc2)C(=O)N(C)CC(=O)N[C@@H](CCc2cc(F)c(C(F)(F)F)c(F)c2)C(=O)N2C[C@H](OCC)C[C@H]2C(=O)NC2(CCC2)C(=O)N(C)[C@@H](C2CCCC2)C(=O)N(C)[C@H](C(=O)N(C)C)CC(=O)N1C [PP1115] | 29 nM | – | – | A (a compound having 10 or more and less than 20 is denoted as A) | A (a compound having 10 or more and less than 20 is denoted as A) | –
CCCN1C(=O)[C@@H]2CCN2C(=O)[C@H](C)N(C)C(=O)[C@H]([C@@H](C)CC)NC(=O)[C@H](CC(C)C)N(C)C(=O)C[C@@H](C(=O)N2CCOCC2)N(C)C(=O)[C@H](C2CCCC2)N(C)C(=O)C(C)(C)NC(=O)[C@@H]2CCCN2C(=O)[C@H](CCc2ccc(C(F)(F)F)c(Cl)c2)NC(=O)CN(C)C(=O)[C@@H]1Cc1ccc(C(F)(F)F)cc1 [PP0225] ([NMeL]I[NMeA][Aze][NPrPhe(4-CF3)][Sar][hPhe(3-Cl-4-CF3)]P[Aib][NMeGly(cPent)][NMeD]-Morpholide; lactam N-11) | 2.4 nM | – | – | C (A compound having a KD ratio of 0.1 or more and less than 3 is denoted as C) | C (A compound having a KD ratio of 0.1 or more and less than 3 is denoted as C) | –
CCCN(C)C(=O)[C@@H]1CC(=O)N(C)[C@@H](COCC)C(=O)N[C@@H]([C@@H](C)CC)C(=O)N(C)CC(=O)N(C)[C@H]2C/C=C\CCN(C2=O)[C@@H](Cc2ccc(C(F)(F)F)cc2)C(=O)N(C)CC(=O)N[C@@H](CCc2cc(F)c(C(F)(F)F)c(F)c2)C(=O)N2C[C@H](OCC)C[C@H]2C(=O)NC2(CC(C)(C)C2)C(=O)N(C)[C@@H](C2CCCC2)C(=O)N1C [PP2031] | 5.5 nM | B (a compound having 3 or more and less than 10 is denoted as B) | B (a compound having 3 or more and less than 10 is denoted as B) | – | – | –
CCCN1C(=O)[C@@H]2CCN2C(=O)[C@H](C)N(C)C(=O)[C@H]([C@@H](C)CC)NC(=O)[C@H](CC(C)C)N(C)C(=O)C[C@@H](C(=O)N2CCOCC2)N(C)C(=O)[C@H](C2CCCC2)N(C)C(=O)C2(CCCC2)NC(=O)[C@@H]2CC3(CC3)CN2C(=O)[C@H](CCc2ccc(C(F)(F)F)c(Cl)c2)NC(=O)CN(C)C(=O)[C@@H]1Cc1ccc(C(F)(F)F)cc1 [PP0282] ([NMeL]I[NMeA][Aze][NPrPhe(4-CF3)][Sar][hPhe(3-Cl-4-CF3)][Pro(4-spirocPr)][Ac5c][NMeGly(cPent)][NMeD]-Morpholide; lactam N-11) | 3.9 nM | – | – | C (A compound having a KD ratio of 0.1 or more and less than 3 is denoted as C) | C (A compound having a KD ratio of 0.1 or more and less than 3 is denoted as C) | –
CCC[C@H]1C(=O)N[C@@H]([C@@H](C)CC)C(=O)N(C)CC(=O)N(C)[C@H]2C/C=C\CCN(C2=O)[C@@H](Cc2ccc(C(F)(F)F)cc2)C(=O)N(C)CC(=O)N[C@@H](CCc2cc(F)c(C(F)(F)F)c(F)c2)C(=O)N2C[C@H](OCC)C[C@H]2C(=O)NC2(CCC2)C(=O)N(C)[C@@H](C2CCCC2)C(=O)N(C)[C@H](C(=O)N(C)CC)CC(=O)N1C [PP1304] | 8.8 nM | – | – | – | – | HRAS /KRAS (HRAS wild-type protein; ratio of KD with respect to HRAS wild-type protein to KD with respect to KRAS): A (a compound having 10 or more and less than 20 is denoted as A); NRAS /KRAS ([2]; ratio of KD with respect to GDP-bound NRAS wild-type protein to KD with respect to KRAS): A (a compound having 10 or more and less than 20 is denoted as A)

More lines, in order of falling IC50 [1], values ahead:

IC50 [1] | SMILES | HRAS /KRAS (HRAS wild-type protein; [3]) | NRAS /KRAS [2, 4] | HRAS /KRAS (HRAS wild-type protein; [7]) | NRAS /KRAS [2, 8] | further results
425 nM | CCCN1C(=O)CN(C)C(=O)[C@@H]2CCN2C(=O)[C@H]([C@@H](C)CC)NC(=O)[C@H](CC(C)C)N(C)C(=O)C[C@@H](C(=O)N2CCOCC2)N(C)C(=O)[C@H](C2CCCC2)N(C)C(=O)C2(COC2)NC(=O)[C@@H]2CCCN2C(=O)[C@H](CCc2cc(F)c(C(F)(F)F)c(F)c2)NC(=O)CN(C)C(=O)[C@@H]1Cc1ccc(C(F)(F)F)cc1 [PP0782] ([NMeL]I[Aze][Sar][NPrPhe(4-CF3)][Sar][hPhe(3,5-F2-4-CF3)]P[Ac4c(3-oxa)][NMeGly(cPent)][NMeD]-Morpholide; lactam N-11) | – | – | B (a compound having 3 or more and less than 10 is denoted as B) | B (a compound having 3 or more and less than 10 is denoted as B) | –
260 nM | CC[C@H](C)[C@@H]1NC(=O)[C@H](C)N(C)C(=O)C[C@@H](C(=O)N2CCOCC2)N(C)C(=O)[C@H](C2CCCC2)N(C)C(=O)C2(CCCC2)NC(=O)[C@@H]2CCCN2C(=O)[C@H](CCc2cc(F)c(C(F)(F)F)c(F)c2)NC(=O)CN(C)C(=O)[C@H](Cc2ccc(C(F)(F)F)cc2)N2CCCCC[C@@H](C2=O)N(C)C(=O)CN(C)C1=O [PP0487] | B (a compound having 3 or more and less than 10 is denoted as B) | B (a compound having 3 or more and less than 10 is denoted as B) | – | – | –
210 nM | CC[C@H](C)[C@@H]1NC(=O)[C@H](CC(C)C)N(C)C(=O)C[C@@H](C(=O)N2CCOCC2)N(C)C(=O)[C@H](C2CCCCC2)N(C)C(=O)C2(CCCC2)NC(=O)[C@@H]2CCCN2C(=O)[C@H](CCc2cc(F)c(C(F)(F)F)c(F)c2)NC(=O)CN(C)C(=O)[C@H](Cc2ccc(C(F)(F)F)cc2)N2CCCCC[C@@H](C2=O)N(C)C(=O)CN(C)C1=O [PP0505] | B (a compound having 3 or more and less than 10 is denoted as B) | B (a compound having 3 or more and less than 10 is denoted as B) | – | – | –
22.4 nM | CCO[C@@H]1C[C@H]2C(=O)NC3(CCC3)C(=O)N(C)[C@@H](C3CCCC3)C(=O)N(C)[C@H](C(=O)N(C)C)CC(=O)N(C)[C@@H](COC)C(=O)N[C@@H]([C@@H](C)CC)C(=O)NCC(=O)N(C)[C@H]3CCCCCN(C3=O)[C@@H](Cc3ccc(C(F)(F)F)cc3)C(=O)N(C)CC(=O)N[C@@H](CCc3cc(F)c(C(F)(F)F)c(F)c3)C(=O)N2C1 [PP0859] | – | – | B (a compound having 3 or more and less than 10 is denoted as B) | B (a compound having 3 or more and less than 10 is denoted as B) | –
17.7 nM | CCCN(C)C(=O)[C@@H]1CC(=O)N(C)[C@@H](CC(F)F)C(=O)N[C@@H]([C@@H](C)CC)C(=O)N(C)CC(=O)N(C)[C@H]2C/C=C\CCN(C2=O)[C@@H](Cc2ccc(C(F)(F)F)cc2)C(=O)N(C)CC(=O)N[C@@H](CCc2cc(F)c(C(F)(F)F)c(F)c2)C(=O)N2C[C@@H](C)C[C@H]2C(=O)NC2(CCC2)C(=O)N(C)[C@@H](C2CCCC2)C(=O)N1C [PP2000] | B (a compound having 3 or more and less than 10 is denoted as B) | A (a compound having 10 or more and less than 20 is denoted as A) | – | – | –
11.2 nM | CCCN(C)C(=O)[C@@H]1CC(=O)N(C)[C@@H](C2CC2)C(=O)N[C@@H]([C@@H](C)CC)C(=O)N(C)CC(=O)N(C)[C@H]2C/C=C\CCN(C2=O)[C@@H](Cc2ccc(C(F)(F)F)cc2)C(=O)N(C)CC(=O)N[C@@H](CCc2cc(F)c(C(F)(F)F)c(F)c2)C(=O)N2C[C@@H](C)C[C@H]2C(=O)NC2(CCC2)C(=O)N(C)[C@@H](C2CCCC2)C(=O)N1C [PP2081] | A (a compound having 10 or more and less than 20 is denoted as A) | A (a compound having 10 or more and less than 20 is denoted as A) | – | – | –
8.2 nM | CC[C@H](C)[C@@H]1NC(=O)[C@H](CC)N(C)C(=O)C[C@@H](C(=O)N(C)C)N(C)C(=O)[C@H](C2CCCC2)N(C)C(=O)C2(CCC2)N(C)C(=O)[C@@H]2CCCN2C(=O)[C@H](CCc2cc(F)c(C(F)(F)F)c(F)c2)NC(=O)CN(C)C(=O)[C@H](Cc2ccc(C(F)(F)F)cc2)N2CC/C=C\C[C@@H](C2=O)N(C)C(=O)CN(C)C1=O [PP1780] | – | – | – | – | HRAS /KRAS (HRAS wild-type protein; [5]): A (a compound having 10 or more and less than 20 is denoted as A); NRAS /KRAS [2, 6]: A (a compound having 10 or more and less than 20 is denoted as A)
7.9 nM | CC[C@H](C)[C@@H]1NC(=O)[C@H](CC2CC2)N(C)C(=O)C[C@@H](C(=O)N(C)CC)N(C)C(=O)[C@H](C2CCCC2)N(C)C(=O)C2(CCC2)NC(=O)[C@@H]2C[C@H](C)CN2C(=O)[C@H](CCc2cc(F)c(C(F)(F)F)c(F)c2)NC(=O)CN(C)C(=O)[C@H](Cc2ccc(C(F)(F)F)cc2)N2CC/C=C\C[C@@H](C2=O)N(C)C(=O)CN(C)C1=O [PP1537] | – | – | – | – | HRAS /KRAS (HRAS wild-type protein; [5]): A (a compound having 10 or more and less than 20 is denoted as A); NRAS /KRAS [2, 6]: AA (a compound having 20 or more is denoted as AA)
7.8 nM | CCO[C@@H]1C[C@H]2C(=O)NC3(CCCC3)C(=O)N(C)[C@@H](C3CCCC3)C(=O)N(C)[C@H](C(=O)N(C)C)CC(=O)N(C)[C@@H](CC(C)C)C(=O)N[C@@H]([C@@H](C)CC)C(=O)N(C)CC(=O)N(C)[C@H]3C/C=C\CCN(C3=O)[C@@H](Cc3ccc(C)cc3)C(=O)N(C)CC(=O)N[C@@H](CCc3ccc(C(F)(F)F)c(Cl)c3)C(=O)N2C1 [PP2195] | A (a compound having 10 or more and less than 20 is denoted as A) | A (a compound having 10 or more and less than 20 is denoted as A) | – | – | –
